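Exposure lasted 48 hours, with cells grown in 96-well plates and compounds tested at five concentrations. GI50: concentration for 50% inhibition of growth. The concentration for full growth arrest is given as TGI.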
Assays:
Assay in all cases: NCI anticancer screen, dose series, 48 h
SF-295 CNS = test system: SF-295 CNS
RPMI-8226 leukemia = test system: RPMI-8226 leukemia
HCT-116 colon = test system: HCT-116 colon
OVCAR-5 ovarian = test system: OVCAR-5 ovarian
A498 renal = test system: A498 renal
786-0 renal = test system: 786-0 renal
K-562 leukemia = test system: K-562 leukemia
SK-OV-3 ovarian = test system: SK-OV-3 ovarian
OVCAR-8 ovarian = test system: OVCAR-8 ovarian
A549 NSCLC = test system: A549 NSCLC
EKVX NSCLC = test system: EKVX NSCLC
NCI-H460 lung = test system: NCI-H460 lung
NCI-H226 lung = test system: NCI-H226 lung
M14 melanoma = test system: M14 melanoma
OVCAR-4 ovarian = test system: OVCAR-4 ovarian
NCI-H522 lung = test system: NCI-H522 lung
SN12C renal = test system: SN12C renal
HOP-62 NSCLC = test system: HOP-62 NSCLC
HL-60(TB) leukemia = test system: HL-60(TB) leukemia
MCF7 breast = test system: MCF7 breast
MOLT-4 leukemia = test system: MOLT-4 leukemia
UO-31 renal = test system: UO-31 renal
UACC-62 melanoma = test system: UACC-62 melanoma
U251 CNS = test system: U251 CNS
BT-549 breast = test system: BT-549 breast
HT29 colon = test system: HT29 colon
CCRF-CEM leukemia = test system: CCRF-CEM leukemia
MDA-MB-435 = test system: MDA-MB-435
ACHN renal = test system: ACHN renal

In the case of COc1ccc2cc([C@H](C)C(=O)NCc3ccccc3)ccc2c1, the GI50 (SF-295 CNS) is reported as 3.23 µM, the TGI (SF-295 CNS) is reported as 16 µM and the GI50 (RPMI-8226 leukemia) is reported as 5.09 µM. It also gave a TGI (RPMI-8226 leukemia) of over 100 µM, a GI50 (HCT-116 colon) of 5.21 µM and a TGI (HCT-116 colon) of over 100 µM. The GI50 (OVCAR-5 ovarian) was 7.84 µM, the TGI (OVCAR-5 ovarian) was over 100 µM and the GI50 (A498 renal) was over 100 µM. The TGI (A498 renal) was over 100 µM, the GI50 (786-0 renal) was 7.94 µM and the TGI (786-0 renal) was over 100 µM. For the same molecule, the GI50 (K-562 leukemia) was 2.19 µM, the TGI (K-562 leukemia) was over 100 µM and the GI50 (SK-OV-3 ovarian) was 3.76 µM. It also gave a TGI (SK-OV-3 ovarian) of 76.7 µM, a GI50 (OVCAR-8 ovarian) of 5.29 µM and a TGI (OVCAR-8 ovarian) of over 100 µM. It also gave a GI50 (A549 NSCLC) of 6.86 µM, a TGI (A549 NSCLC) of over 100 µM and a GI50 (EKVX NSCLC) of 3.82 µM. It also gave a TGI (EKVX NSCLC) of over 100 µM, a GI50 (NCI-H460 lung) of 3.83 µM and a TGI (NCI-H460 lung) of over 100 µM. It also gave a GI50 (NCI-H226 lung) of 7.83 µM, a TGI (NCI-H226 lung) of over 100 µM and a GI50 (M14 melanoma) of 3.61 µM. The TGI (M14 melanoma) was over 100 µM, the GI50 (OVCAR-4 ovarian) was 49.3 µM and the TGI (OVCAR-4 ovarian) was over 100 µM. It also gave a GI50 (NCI-H522 lung) of 2.98 µM, a TGI (NCI-H522 lung) of over 100 µM and a GI50 (SN12C renal) of 4.26 µM. It also gave a TGI (SN12C renal) of over 100 µM, a GI50 (HOP-62 NSCLC) of 4.02 µM and a TGI (HOP-62 NSCLC) of 76 µM. It also gave a GI50 (HL-60(TB) leukemia) of 2.25 µM, a TGI (HL-60(TB) leukemia) of 7.52 µM and a GI50 (MCF7 breast) of 3.39 µM. The TGI (MCF7 breast) was over 100 µM, the GI50 (MOLT-4 leukemia) was 4.19 µM and the TGI (MOLT-4 leukemia) was over 100 µM. For the same molecule, the GI50 (UO-31 renal) was 4.35 µM, the TGI (UO-31 renal) was 73.4 µM and the GI50 (UACC-62 melanoma) was 3.75 µM. The TGI (UACC-62 melanoma) was over 100 µM, the GI50 (U251 CNS) was 3.95 µM and the TGI (U251 CNS) was 73.9 µM. It also gave a GI50 (BT-549 breast) of 5.47 µM, a TGI (BT-549 breast) of over 100 µM and a GI50 (HT29 colon) of 3.08 µM. For the same molecule, the TGI (HT29 colon) was over 100 µM, the GI50 (CCRF-CEM leukemia) was 3.9 µM and the TGI (CCRF-CEM leukemia) was over 100 µM. It also gave a GI50 (MDA-MB-435) of 1.71 µM, a TGI (MDA-MB-435) of 7.53 µM and a GI50 (ACHN renal) of 5.93 µM. The TGI (ACHN renal) was over 100 µM.

Source: PubChem BioAssay (NCI)
